From patent publication US11000487B2, “Compositions and methods for the treatment of chronic pain” (CELLIX BIO PRIVATE LIMITED, priority 2016, dated 2021)
Converted amounts (≈) assume the structure as drawn. Read-outs that look alike come from different tables or passages of the source.

Tests used:
[1] = tested on: oral pathogenic microorganisms; details: n-6 fatty acids GLA; cited from earlier work
[2] = comparison among long-chain fatty acids; cited from earlier work
C. albicans = details: cited from earlier work
Candida Species [3] = details: cited from earlier work
Candida Species [4] = assay: minimum inhibitory concentration against Candida; assay type: cell-based; details: conversion of 0.45 μmoles/ml

| SMILES | bactericidal concentration [1] [µg/mL] | antimicrobial activity among the long-chain fatty acids [2] | activity against C. albicans (C. albicans) [%] | MIC (Candida Species [3]) [µM] | MIC (Candida Species [4]) [µg/mL] |
| --- | --- | --- | --- | --- | --- |
| CCCCC/C=C\C/C=C\C/C=C\CCCCC(=O)O [GLA, gamma linoleic acid] | 25 | greatest antimicrobial activity |  |  |  |
| CCCCC/C=C\C/C=C\C/C=C\C/C=C\CCCC(=O)O [arachidonic acid] |  | greatest antimicrobial activity |  |  |  |
| CCCCC/C=C\C/C=C\CCCCCCCC(=O)O [linoleic acid] |  | greatest antimicrobial activity | < 40 | 450 (≈ 126 µg/mL) | 0.13 (≈ 0.464 µM) |
| CCCCCCCCCCCCCCCC(=O)O [palmitic acid] |  | greatest antimicrobial activity |  |  |  |
| CCCCCC/C=C\CCCCCCCC(=O)O [palmitoleic acid] |  | greatest antimicrobial activity |  |  |  |
